Reference: patent US11154540B2, “Methods of treating ophthalmic disease/disorder or injury with ibudilast” (MediciNova, Inc., priority 2018, dated 2021)
Entries after “also recorded” stand apart in the source; their conditions may differ.

Legend:
[1] = tested on: subjects with primary or secondary progressive multiple sclerosis; assay: Optical coherence tomography (OCT) outcomes in the SPRINT-MS phase II randomized, double-blind, placebo-controlled trial; assay type: in vivo, human
Method: This was a multicenter, randomized, double-blind, placebo-controlled, parallel-group study designed to evaluate the safety, tolerability and activity of ibudilast administered twice daily over a 96 week period in subjects with primary or secondary progressive multiple sclerosis. The primary objectives of the study were: • to evaluate the activity of ibudilast (100 mg/d) versus placebo at 96 weeks as measured by quantitative magnetic resonance imaging (MRI) analysis for whole brain atrophy using brain parenchymal fraction (BPF); • to evaluate the safety and tolerability of ibudilast (100 mg/d) versus placebo administered orally in subjects with primary and secondary progressive multiple sclerosis; and • to study the effect of ibudilast on macular measures from the SPRINT-MS phase II trial of ibudilast in progressive MS. The major secondary objectives were to evaluate the activity of ibudilast at 96 weeks versus placebo as measured by: • Diffusion tensor imaging (DTI) in descending pyramidal white matter tracts; • Magnetization transfer ratio (MTR) imaging in normal-appearing brain tissue; • Retinal nerve fiber layer as measured by Optical coherence tomography (OCT); and • Cortical atrophy as measured by cortical longitudinal atrophy detection algorithm ([…] total of 255 male and female subjects from 21 to 65 years old, inclusive, were enrolled into one of two treatment arms (ibudilast 100 mg/d or matching-placebo). Study population for SPRINT-MS was a mix of primary (53%) and secondary progressive (47%) MS, average age 56 years and median expanded disability status scale (EDSS)=6.0 at baseline. Randomization of subjects was stratified by disease status ([…]), and by immunomodulating therapy status: “untreated”, glatiramer acetate (GA), or interferon-beta. Subjects were allowed to continue using of interferon-beta (IFN-β) or glatiramer acetate while participating in this study. During the study, subjects were allowed to change medications from one injectable to the other. Pegylated interferon beta-1 were also allowed (if approved by the FDA). Inhaled and topical steroids are allowed. If a relapse episode occurred, a single course of systemic corticosteroids was permitted, as prescribed by the treating neurologist. Subjects returned to the clinic for follow-up visits on a regular basis at Week 4, 8, 12, 24, 36, 48, 60, 72, 84 and 96. The double-blind Treatment Phase consisted of a Baseline visit followed by 10 scheduled clinic visits. The Baseline Visit had to have occurred within 45 days following the Screening Visit. At the Baseline Visit (Day 1), subjects who completed all of the screening assessments and continued to meet eligibility criteria were randomized to one of two treatment groups (ibudilast 100 mg/d or placebo) in a 1:1 ratio. […] Subjects took their first dose of study medication (30 mg ibudilast or placebo) on the evening of the Baseline Visit (Day 1). On the morning of Day 2, all subjects begun a 3 capsule BID dosing regimen through Day 14. Subjects randomized to ibudilast started at 60 mg/d (30 mg BID) on Day 2 and remained on 60 mg/d through Day 14. Beginning on Day 15, all subjects increased dosing to 5 capsules BID regimen; those randomized to the ibudilast treatment arm were taking 100 mg/d. After Day 15, subjects with intolerable side-effects (e.g., nausea, diarrhea, vertigo) were allowed to reduced their dose to either 4 capsules twice a day (80 mg/d for those taking ibudilast) or 3 capsules twice a day (60 mg/d for those taking ibudilast). Subjects with intolerable side-effects (e.g., nausea, diarrhea, vertigo) at the end of Day 14 were allowed to continue taking 3 capsules twice a day at the Investigator's discretion. At the Investigator's discretion, the daily dose of ibudilast were potentially adjusted between 3 capsules twice a day, 4 capsules twice a day, and 5 capsules twice a day over the first 8 weeks of treatment. […]

[2] = Sanftner et al., Xenobiotica 2009 39: 964-977; cited from earlier work

CC(C)C(=O)c1c(C(C)C)nn2ccccc12 [ibudilast, 3-isobutyryl-2-isopropylpyrazolo[1,5-a]pyridine]
macular volume loss and GCIP layer thinning (in words) ([1]; Cirrus OCT): favorable changes towards reduced macular volume loss and GCIP layer thinning
rate of macular volume loss, between-group difference per year ([1]; Cirrus OCT, ibudilast vs placebo, 95% CI: −0.0090 to 0.0499): 0.0204 mm^3
ganglion cell-inner plexiform layer thinning, between-group difference per year ([1]; Cirrus OCT, ibudilast vs placebo, 95% CI: −0.1189 to 1.0578): 0.469 µm/year
annual macular volume loss compared to placebo (in words) ([1]; Spectralis OCT over 96 weeks): slower
rate of macular volume loss, between-group difference per year ([1]; Spectralis OCT, ibudilast vs placebo, 95% CI: 0.0008 to 0.0623): 0.0316 mm^3
estimated rate of macular volume change per year ([1]; patients followed with Cirrus OCT, 95% CI: −0.02167 to 0.020866, placebo −0.02083, p=0.1734): −0.0004 mm^3
estimated rate of macular volume change per year ([1]; patients followed with Spectralis OCT, 95% CI: −0.02693 to 0.01688, placebo −0.03659, p=0.044): −0.00503 mm^3
CNS distribution / penetration (in words) [2]: distributes well to the CNS; also recorded: good CNS penetration
